In US20040023295A1, “Methods and systems for analyzing complex biological systems” (priority 2001, published 2004):

Tested on: Saccharomyces cerevisiae wild type strain BY4743
Test: Yeast azole drug experiment AF1: metabolite analysis (GC-MS, LC-MS)
Type: cell-based

C[C@@H]1[C@H](O)[C@@H](C)/C=C/C=C/C=C/C=C/C=C/C=C/C=C/[C@H](O[C@@H]2O[C@H](C)[C@@H](O)[C@H](N)[C@@H]2O)C[C@@H]2O[C@](O)(C[C@@H](O)C[C@@H](O)[C@H](O)CC[C@@H](O)C[C@@H](O)CC(=O)O[C@H]1C)C[C@H](O)[C@H]2C(=O)O [Amphoteracin B]
Fold Change urocanic acid (nLC): 0 | Fold Change xanthosine-DiH2O (nLC): 0 | Fold Change zeatin (nLC): 0 | Fold Change urocanic acid (pLC): 0 | Fold Change xanthosine (diH2O) (pLC): 0 | Fold Change zeatin (pLC): 0 | Fold Change of metabolite disaccaride2 (platform GC, p-Value 0.000388379): −0.9977 | Fold Change of metabolite disaccaride3 (platform GC, p-Value 0.000700744): −0.9977 | Fold Change of metabolite tms glutamine3 (platform GC, p-Value 0.003279434): −0.8935 | Fold Change of metabolite phenylalanine (platform GC, p-Value 0.010760299): −0.9797 | Fold Change of metabolite ornithine3 (platform GC, p-Value 0.011300115): −0.9853 | Fold Change of metabolite TMS mevalonic acid lactone (platform GC, p-Value 0.012983194): −0.9767 | Fold Change of metabolite malic acid (platform GC, p-Value 0.015444108): −0.963 | Fold Change of metabolite leucine (platform GC, p-Value 0.015876175): −0.9443 | Fold Change of metabolite glutamine (platform GC, p-Value 0.019324613): −0.9116 | Fold Change of metabolite sugar? (platform GC, p-Value 0.019518223): −0.933 | Fold Change of metabolite isoleucine (platform GC, p-Value 0.021030517): −0.9533 | Fold Change of metabolite aspartic acid (platform GC, p-Value 0.024172801): −0.9743 | Fold Change of metabolite tms tyrosine3 (platform GC, p-Value 0.029953667): −0.9473 | Fold Change of metabolite tms lysine4 (platform GC, p-Value 0.032217789): −0.9783 | Fold Change of metabolite glycanopyrose (platform GC, p-Value 0.041202857): −0.958 | Fold Change of metabolite alanine (platform GC, p-Value 0.054639399): −0.7773 | Fold Change of metabolite threonine3 (platform GC, p-Value 0.063199416): −0.8933 | Fold Change of metabolite threonine2 (platform GC, p-Value 0.073159868): −0.8553 | Fold Change of metabolite glycerol (platform GC, p-Value 0.089234962): −0.815 | Fold Change of metabolite ergosterol (platform GC, p-Value 0.114118055): 2.303 | Fold Change of metabolite fucosterol (platform GC, p-Value 0.186711806): −0.6553 | Fold Change of metabolite iso citric acid (platform GC, p-Value 0.233348939): −0.6183 | Fold Change of metabolite squalene (platform GC, p-Value 0.254158772): −0.5745 | Fold Change of metabolite oleic acid (platform GC, p-Value 0.325422554): −0.4593 | Fold Change of metabolite glycine (platform GC, p-Value 0.431923912): 0.8807 | Fold Change of metabolite lysine (platform GC, p-Value 0.488896519): −0.3925 | Fold Change of metabolite palmiteliadic acid (platform GC, p-Value 0.503020409): 0.515 | Fold Change of metabolite tms tyrosine2 (platform GC, p-Value 0.601581614): −0.3593 | Fold Change of metabolite octadecanoic acid (platform GC, p-Value 0.660192025): 0.21 | Fold Change of metabolite mevalonic acid lactone (platform GC, p-Value 0.690626296): −0.1276 | Fold Change of metabolite pyrimidine (platform GC, p-Value 0.744108261): −0.185 | Fold Change of metabolite tetradecanoic acid (platform GC, p-Value 0.793963653): 0.07967 | Fold Change of metabolite hexadecanoic acid (platform GC, p-Value 0.921125845): −0.2427 | Fold Change of metabolite phosphate (platform GC, p-Value 0.983733869): −0.007333 | Fold Change of metabolite campesterol (platform GC, p-Value 1): 0 | Fold Change of metabolite desmosterol (platform GC, p-Value 1): 0 | Fold Change of metabolite ornithine2 (platform GC, p-Value 1.48992E−05): −1 | Fold Change of metabolite asparagine (platform GC, p-Value 6.41E−06): −1 | Fold Change of metabolite disaccaride1 (platform GC, p-Value 7.54E−06): −1 | Fold Change of metabolite lanosterol (platform GC, p-Value 7.71E−06): −1 | Fold Change of metabolite kinetin (platform nLC (first kinetin line), p-Value 1): 0 | Fold Change of metabolite kinetin (platform nLC (second kinetin line), p-Value 1): 0 | Fold Change of metabolite cytidine (platform nLC, p-Value 0.000680198): −0.9986 | Fold Change of metabolite isocitric/citric/qu (platform nLC, p-Value 0.027544382): 2.549 | Fold Change of metabolite lactic acid (platform nLC, p-Value 0.077524891): −0.02583 | Fold Change of metabolite allantoin (platform nLC, p-Value 0.149169352): 3.97 | Fold Change of metabolite orotic acid (platform nLC, p-Value 0.186179266): 8380 | Fold Change of metabolite succinic (platform nLC, p-Value 0.193450596): 0.8663 | Fold Change of metabolite 3-indolylacetonitri (platform nLC, p-Value 0.197015297): −0.9998 | Fold Change of metabolite citrulline (platform nLC, p-Value 0.217809679): 1659 | Fold Change of metabolite 2-ketobutyric acid (platform nLC, p-Value 0.225631474): −0.9992 | Fold Change of metabolite sucrose (platform nLC, p-Value 0.225682636): 0.4493 | Fold Change of metabolite fumaric/3m2oxobutan (platform nLC, p-Value 0.238894937): 0.4423 | Fold Change of metabolite glucosamine6PO4 (platform nLC, p-Value 0.273438701): −0.9951 | Fold Change of metabolite gallic acid (platform nLC, p-Value 0.29960644): 0.1622 | Fold Change of metabolite arginine (platform nLC, p-Value 0.315413423): −0.4885 | Fold Change of metabolite biotin (platform nLC, p-Value 0.363209057): 1.077 | Fold Change of metabolite nopaline (platform nLC, p-Value 0.369522244): 0.3342 | Fold Change of metabolite hypoxanthine (platform nLC, p-Value 0.372039959): 0.1655 | Fold Change of metabolite tryptophan (platform nLC, p-Value 0.380816515): 1.142 | Fold Change of metabolite DLaminoadipic acid (platform nLC, p-Value 0.40985594): 1.411 | Fold Change of metabolite inostol/glucos/sorb (platform nLC, p-Value 0.41837757): −0.5905 | Fold Change of metabolite guanosine (platform nLC, p-Value 0.425021511): 1.131 | Fold Change of metabolite caffeic acid (platform nLC, p-Value 0.427037943): −0.5882 | Fold Change of metabolite ornithine (platform nLC, p-Value 0.473753211): 2.534 | Fold Change of metabolite malic acid (platform nLC, p-Value 0.497517178): 0.6212 | Fold Change of metabolite proline (platform nLC, p-Value 0.518220081): 0.4603 | Fold Change of metabolite 2-ketoglutaric (platform nLC, p-Value 0.622408732): 8.791 | Fold Change of metabolite alanine (platform nLC, p-Value 0.62524207): 0.1599 | Fold Change of metabolite sorbitol/mannitol (platform nLC, p-Value 0.68492695): 0.2162 | Fold Change of metabolite aspartic (platform nLC, p-Value 0.703732114): 0.2407 | Fold Change of metabolite pyridoxine (platform nLC, p-Value 0.708651225): −0.1294 | Fold Change of metabolite selenoDL-methionine (platform nLC, p-Value 0.711447529): 0.8515 | Fold Change of metabolite glutamic/acetylseri (platform nLC, p-Value 0.733962176): 0.1414 | Fold Change of metabolite asparagine (platform nLC, p-Value 0.758489047): 0.1511 | Fold Change of metabolite phenylalanine (platform nLC, p-Value 0.76165051): −0.1906 | Fold Change of metabolite leucine/isoleucine/ (platform nLC, p-Value 0.763305915): 0.1319 | Fold Change of metabolite serine (platform nLC, p-Value 0.766811518): 0.1091 | Fold Change of metabolite threonine/homoserin (platform nLC, p-Value 0.769444989): 0.1267 | Fold Change of metabolite allantoic acid (platform nLC, p-Value 0.777964345): −0.1456 | Fold Change of metabolite tetradecanoic acid (platform nLC, p-Value 0.782765706): −0.07723 | Fold Change of metabolite 4aminobutyrate/dimg (platform nLC, p-Value 0.820379809): −0.1983 | Fold Change of metabolite decanoic acid (platform nLC, p-Value 0.824169685): −0.08716 | Fold Change of metabolite glutamine/lysine (platform nLC, p-Value 0.835677767): 0.07919 | Fold Change of metabolite NacetylL-glutamate (platform nLC, p-Value 0.840704909): −0.1078 | Fold Change of metabolite menthol* (platform nLC, p-Value 0.852876357): −0.07013 | Fold Change of metabolite pipecolic acid (platform nLC, p-Value 0.871015411): 0.08112 | Fold Change of metabolite sugar-phosphate (platform nLC, p-Value 0.878141701): −0.1067 | Fold Change of metabolite oleic acid (platform nLC, p-Value 0.880270386): 0.689 | Fold Change of metabolite aconitic acid (platform nLC, p-Value 0.891314692): 0.5426 | Fold Change of metabolite palmitic acid (platform nLC, p-Value 0.90280612): 0.3979 | Fold Change of metabolite nicotinic acid (platform nLC, p-Value 0.972130606): 0.3131 | Fold Change of metabolite lauric acid (platform nLC, p-Value 0.972245476): 0.1225 | Fold Change of metabolite 4-methylcatechol (platform nLC, p-Value 1): 0
